Assay results from patent US20210085585A1, “A PERSONAL CARE COMPOSITION” (Conopco, Inc., d/b/a UNILEVER, priority 2017, published 2021).

Tested on: co-cultures of HaCaT keratinocytes and neonatal primary human epidermal melanocytes
Assay: Melanin content assay (cellular melanin content in keratinocyte-melanocyte co-cultures)
Assay type: cell-based
Details: 72 h treatment, average % reduction in cellular melanin content; for inhibition at 10000 µM: single active at 10 mM
Experimental: Neonatal primary human epidermal melanocytes were sourced from Life Technologies. Melanocytes were maintained in Medium 254 supplemented with Human Melanocyte Growth Supplement-2 (MGM).
HaCaT keratinocytes were maintained in DMEM medium containing 10% heat inactivated foetal bovine serum. All media were also supplemented with 10 U/mL penicillin G and 0.1 mg/mL streptomycin sulphate. Both cell types were maintained at 37° C. in a humidified incubator with 5% CO2 atmosphere.
Maintenance and sub-culturing of cells were carried out as per the manufacturer's instructions. For setup of co-cultures, HaCaT keratinocytes and melanocytes, each 40,000 cells were mixed (1:1 ratio) in 1 mL of a 1:1 mix of MGM:GM (KGM: EpiLife Medium supplemented with Human Keratinocyte Growth Supplement) and seeded as such per well, in 12 well Nunc plates.
Actives were prepared in media and test concentrations were added to cells along with relevant controls 24 h post seeding. After 72 h of active treatment, cell viability (using calcein method) and measurement of cellular melanin content was determined as described below.
After calcein fluorescence readings were obtained, cells were drained and fresh 0.15 mL of 1N NaOH (in 10% DMSO) per well was added. Cells were lysed by resuspension and incubated (60° C. for 1 h). Then, 0.1 mL of this lysate was transferred to a fresh 384-well plate and OD was measured at 405 nm in a TECAN M1000 plate reader (estimate of relative melanin content).

Compound	inhibition at 100 µM (single active at 100 uM)	inhibition at 1000 µM (single active at 1 mM)	inhibition at 10000 µM
O=C(O)CCN1CCCCC1 [1PP, 1-piperidinepropionic acid]	1%	-5%	0%
NC(=O)c1cccnc1 [3-pyridinecarboxamide]	–	–	0%
